Assay results reported in patent US10822336B2, “Crystals of [2-(1-methyl-1H-pyrazol-4-yl)-6(morpholin-4-yl)-9H-purin-8-yl][4-(morpholin-4-yl)piperidin-1-yl]methanone and pharmaceutically acceptable salt thereof” (Daiichi Sankyo Company, Limited, priority 2016, dated 2020).

Tests used:
[1] = Oral bioavailability (BA) in rats; format: in vivo; conditions: plasma; female Wistar rat, 10.0 mg/kg oral vs 3.0 mg/kg intravenous
Description: Oral Bioavailability (BA) in Rats
(§1) To a female Wistar rat (210±10 g), the compound (I) was intravenously administered as a solution containing the compound (I) (2.0 mg/mL) in a vehicle containing polysorbate and dextrose (pH5.0) or orally as a suspension of the compound (I) (1.0 mg/mL) in methyl cellulose. The final dosage in the case of intravenous administration was 3.0 mg/body weight (1 kg) or that in the case of oral administration was 10.0 mg/body weight (1 kg). A plasma sample was analyzed for the compound (I) by the LC-MS/MS method. Pharmacokinetic parameters were estimated by moment analysis. WinNonlin software 6.1 (Pharsight) was used for estimating the PK parameters. Oral bioavailability was calculated based on dose-normalized oral exposure and intravenous plasma exposure amounts.

PI3Kγ = molecular target: T1, PI3Kγ (Homo sapiens, UniProt P48736); experiment: In-vitro enzyme assay (Kinase-Glo luminescent kinase assay), PI3Kγ; format: biochemical; conditions: enzyme 2.29 μg/mL, ATP 10 μM, PIP2 60 μM, 2 hours; read-out: inhibitory activity (IC50) against PI3Kγ
T1 construct: purchased Proteros, Germany
T1 sequence (P48736 whole entry, species assumed): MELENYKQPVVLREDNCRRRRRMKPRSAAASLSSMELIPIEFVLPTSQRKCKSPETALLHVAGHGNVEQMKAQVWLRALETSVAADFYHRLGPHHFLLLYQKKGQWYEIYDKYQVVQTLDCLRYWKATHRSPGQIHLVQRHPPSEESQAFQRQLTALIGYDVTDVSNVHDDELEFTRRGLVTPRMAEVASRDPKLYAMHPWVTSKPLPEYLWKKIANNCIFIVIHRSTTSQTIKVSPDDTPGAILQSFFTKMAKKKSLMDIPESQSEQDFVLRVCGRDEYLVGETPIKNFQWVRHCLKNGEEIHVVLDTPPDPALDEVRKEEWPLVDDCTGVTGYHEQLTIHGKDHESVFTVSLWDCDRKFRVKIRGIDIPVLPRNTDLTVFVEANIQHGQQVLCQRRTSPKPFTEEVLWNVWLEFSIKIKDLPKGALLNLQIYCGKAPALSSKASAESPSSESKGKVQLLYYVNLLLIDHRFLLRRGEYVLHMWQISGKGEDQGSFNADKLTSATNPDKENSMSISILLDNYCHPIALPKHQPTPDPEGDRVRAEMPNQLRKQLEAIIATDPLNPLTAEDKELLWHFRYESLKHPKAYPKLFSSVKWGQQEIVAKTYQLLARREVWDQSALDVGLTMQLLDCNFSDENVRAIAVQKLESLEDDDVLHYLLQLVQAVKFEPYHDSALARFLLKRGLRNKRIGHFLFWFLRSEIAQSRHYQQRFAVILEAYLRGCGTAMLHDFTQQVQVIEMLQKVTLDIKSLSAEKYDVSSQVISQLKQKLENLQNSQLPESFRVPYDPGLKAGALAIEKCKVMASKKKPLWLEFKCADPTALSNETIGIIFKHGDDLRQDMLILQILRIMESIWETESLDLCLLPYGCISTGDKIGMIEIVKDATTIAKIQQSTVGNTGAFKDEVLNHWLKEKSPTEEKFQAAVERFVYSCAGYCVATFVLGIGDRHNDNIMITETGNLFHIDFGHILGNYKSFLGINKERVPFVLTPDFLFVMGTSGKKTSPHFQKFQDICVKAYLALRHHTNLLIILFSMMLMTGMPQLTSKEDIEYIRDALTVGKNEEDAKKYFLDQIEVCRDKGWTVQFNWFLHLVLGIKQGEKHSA
Description: (§2) A Kinase-Glo luminescent kinase assay kit (manufactured by Promega) was used for measuring kinase activity. In this assay, the amount of ATP remaining in a solution after a kinase reaction was measured. To confirm the effect of a compound on PI3Kδ inhibition, 2.29 μg/ml recombinant PI3Kδ enzyme (Proteros, Germany) was added to a reaction mixture containing 10 mM MgCl2, 5 mM DTT, 60 μM phosphatidylinositol diphosphate (PIP2) and an assay buffer (containing 50 mM HEPES, pH7.4, 50 mM NaCl, 0.05% CHAPS) supplemented with 10 μM ATP in a final volume of 15 μl/well, in the presence and absence of compound (I), in a 384-well plate. The reaction mixture was incubated at room temperature for 2 hours. At the end of the incubation period, the same volume of Kinase-Glo plus (Promega, V3772) was added per well. After the reaction mixture was incubated at room temperature for 10 minutes in a dark place, emission was measured. The results were calculated by measuring the emission unit of the test sample relative to a blank containing no enzyme.
(§3) Using specific recombinant enzymes (Proteros, Germany) PI3Kα, PI3Kβ and PI3Kγ, inhibitory activities of compound (I) against each of the kinases were examined. The assay conditions of kinases (PI3Kα, PI3Kβ, PI3Kγ and PI3Kδ) were as follows.

PI3Kβ = molecular target: T2, PI3Kβ (Homo sapiens, UniProt P42338); experiment: In-vitro enzyme assay (Kinase-Glo luminescent kinase assay), PI3Kβ; format: biochemical; conditions: enzyme 2.29 μg/mL, ATP 10 μM, PIP2 60 μM, 2 hours; read-out: inhibitory activity (IC50) against PI3Kβ
T2 construct: purchased Proteros, Germany
T2 sequence (P42338 whole entry, species assumed): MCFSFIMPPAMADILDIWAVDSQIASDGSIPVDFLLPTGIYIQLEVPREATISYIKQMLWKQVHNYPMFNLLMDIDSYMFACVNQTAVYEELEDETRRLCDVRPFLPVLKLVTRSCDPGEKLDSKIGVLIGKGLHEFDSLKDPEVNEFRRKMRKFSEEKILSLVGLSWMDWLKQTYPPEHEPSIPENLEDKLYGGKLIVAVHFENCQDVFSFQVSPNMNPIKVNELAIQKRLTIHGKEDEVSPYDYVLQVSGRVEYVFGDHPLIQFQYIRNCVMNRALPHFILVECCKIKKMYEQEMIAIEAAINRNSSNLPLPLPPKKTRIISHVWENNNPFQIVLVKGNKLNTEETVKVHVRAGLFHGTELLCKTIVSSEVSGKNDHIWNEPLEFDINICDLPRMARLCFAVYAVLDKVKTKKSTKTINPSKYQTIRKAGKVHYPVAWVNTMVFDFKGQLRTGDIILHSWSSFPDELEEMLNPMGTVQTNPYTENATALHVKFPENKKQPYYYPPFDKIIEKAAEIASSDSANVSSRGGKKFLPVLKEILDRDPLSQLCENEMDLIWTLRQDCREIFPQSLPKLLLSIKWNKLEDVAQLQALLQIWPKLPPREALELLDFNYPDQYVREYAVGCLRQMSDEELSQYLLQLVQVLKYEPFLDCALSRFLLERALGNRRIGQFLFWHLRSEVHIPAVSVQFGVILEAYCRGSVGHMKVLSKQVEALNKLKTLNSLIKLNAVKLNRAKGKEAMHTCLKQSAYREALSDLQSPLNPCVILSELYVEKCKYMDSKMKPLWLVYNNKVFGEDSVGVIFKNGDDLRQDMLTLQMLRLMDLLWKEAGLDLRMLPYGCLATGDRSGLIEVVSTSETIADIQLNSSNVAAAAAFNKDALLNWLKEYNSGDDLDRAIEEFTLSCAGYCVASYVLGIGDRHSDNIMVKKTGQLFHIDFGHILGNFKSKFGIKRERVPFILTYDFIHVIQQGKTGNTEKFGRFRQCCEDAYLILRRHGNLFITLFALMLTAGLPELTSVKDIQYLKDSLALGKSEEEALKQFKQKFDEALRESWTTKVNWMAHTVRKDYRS
T2 sequence (P27986 whole entry partner, species assumed): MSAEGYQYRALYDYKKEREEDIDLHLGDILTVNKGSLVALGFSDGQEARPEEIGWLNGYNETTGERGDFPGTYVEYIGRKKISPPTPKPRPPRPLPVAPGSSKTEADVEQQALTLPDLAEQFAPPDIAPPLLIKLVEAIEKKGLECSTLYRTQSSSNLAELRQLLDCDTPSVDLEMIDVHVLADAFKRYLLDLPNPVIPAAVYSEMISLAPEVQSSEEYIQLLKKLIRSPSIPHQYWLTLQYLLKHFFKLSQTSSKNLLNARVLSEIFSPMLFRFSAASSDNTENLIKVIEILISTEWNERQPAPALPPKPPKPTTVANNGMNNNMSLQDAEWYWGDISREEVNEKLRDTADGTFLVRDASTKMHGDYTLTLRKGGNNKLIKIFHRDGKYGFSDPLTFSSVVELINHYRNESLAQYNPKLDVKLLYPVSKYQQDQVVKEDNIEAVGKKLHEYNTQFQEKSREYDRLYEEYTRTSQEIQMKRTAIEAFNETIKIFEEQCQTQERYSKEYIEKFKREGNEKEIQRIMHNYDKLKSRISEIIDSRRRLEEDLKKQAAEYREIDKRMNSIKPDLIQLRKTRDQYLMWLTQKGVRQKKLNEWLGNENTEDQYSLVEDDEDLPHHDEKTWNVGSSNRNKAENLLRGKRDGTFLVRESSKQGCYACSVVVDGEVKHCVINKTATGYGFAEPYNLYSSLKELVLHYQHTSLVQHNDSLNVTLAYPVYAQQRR
Description: as §2, §3

[2] = test system: HDM-induced chronic asthma (eosinophils in bronchoalveolar lavage fluid); experiment: House dust mite (HDM)-induced chronic asthma model of Balb/c mouse; format: in vivo; conditions: Eosinophil; bid, oral, third to fifth week, female Balb/c mouse, 48 hours after final HDM exposure
Description: House Dust Mite (HDM)-Induced Chronic Asthma Model of Balb/c Mouse
The protocol used herein was described in Am. J. Respir. Crit. Care Med., 2004; 169: 378 to 385 pages.
A female Balb/c mouse was intranasally exposed to a purified HDM (Dermatophagoides pteronyssinus) extract at maximum for 5 successive weeks at a frequency of 5 days/week (protein (25 μg) in physiological saline (20 μl)). The compound (I) was orally administered twice a day from the third week to fifth week. Forty eight hours after the final HDM exposure, the animal was euthanized and bronchoalveolar lavage fluid was collected. The cell suspension was treated, and the absolute number of eosinophils were counted.

PI3Kα = molecular target: T3, PI3Kα (Homo sapiens, UniProt P42336); experiment: In-vitro enzyme assay (Kinase-Glo luminescent kinase assay), PI3Kα; format: biochemical; conditions: enzyme 2.29 μg/mL, ATP 10 μM, PIP2 60 μM, 2 hours; read-out: inhibitory activity (IC50) against PI3Kα
T3 construct: purchased Proteros, Germany
T3 sequence (P42336 whole entry, species assumed): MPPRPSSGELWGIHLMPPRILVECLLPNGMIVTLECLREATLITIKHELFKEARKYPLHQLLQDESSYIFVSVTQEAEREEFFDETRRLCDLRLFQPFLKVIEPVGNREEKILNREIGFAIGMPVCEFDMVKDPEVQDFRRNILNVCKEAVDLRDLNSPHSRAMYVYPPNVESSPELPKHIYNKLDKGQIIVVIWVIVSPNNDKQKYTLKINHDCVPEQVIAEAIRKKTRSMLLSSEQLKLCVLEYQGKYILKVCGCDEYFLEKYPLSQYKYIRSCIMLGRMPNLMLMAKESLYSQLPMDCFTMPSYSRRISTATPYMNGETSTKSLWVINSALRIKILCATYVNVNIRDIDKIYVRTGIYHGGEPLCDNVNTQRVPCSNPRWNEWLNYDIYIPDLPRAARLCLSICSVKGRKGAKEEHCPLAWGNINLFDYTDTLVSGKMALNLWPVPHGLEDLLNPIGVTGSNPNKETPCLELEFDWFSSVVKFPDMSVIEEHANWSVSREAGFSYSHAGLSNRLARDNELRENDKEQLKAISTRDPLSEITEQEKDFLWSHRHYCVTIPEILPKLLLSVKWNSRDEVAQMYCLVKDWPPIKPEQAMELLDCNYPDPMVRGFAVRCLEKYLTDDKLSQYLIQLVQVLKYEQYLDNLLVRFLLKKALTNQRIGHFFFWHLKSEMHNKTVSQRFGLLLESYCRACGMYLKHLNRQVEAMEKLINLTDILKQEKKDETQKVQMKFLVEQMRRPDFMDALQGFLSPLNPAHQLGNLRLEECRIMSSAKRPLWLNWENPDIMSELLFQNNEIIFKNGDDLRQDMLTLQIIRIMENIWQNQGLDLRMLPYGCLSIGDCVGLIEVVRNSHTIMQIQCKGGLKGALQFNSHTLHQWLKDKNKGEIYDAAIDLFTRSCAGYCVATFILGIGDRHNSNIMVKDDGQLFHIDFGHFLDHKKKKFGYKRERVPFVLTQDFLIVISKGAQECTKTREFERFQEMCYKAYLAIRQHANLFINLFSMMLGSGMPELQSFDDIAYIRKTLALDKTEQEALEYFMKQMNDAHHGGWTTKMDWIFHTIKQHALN
T3 sequence (P27986 whole entry partner, species assumed): as the sequence (P27986 whole entry partner, species assumed) above
Description: as §2, §3

[3] = Method for examining solubility (JP1, JP2); format: physicochemical; conditions: pH 1.2, simulated gastric fluid, thermodynamic from solid; Solution 1 (JP1) according to the Japanese Pharmacopoeia, room temperature
Description: Method for Examining Solubility
A 10 mmol/L solution of the compound (I) in DMSO was prepared. The 10 mmol/L DMSO stock solution (100 μL) was dispensed to two labelled glass tubes: one for Solution 1 (JP1) according to the Japanese Pharmacopoeia and the other for Solution 2 (JP2) according to the Japanese Pharmacopoeia. DMSO was allowed to evaporate from each of the glass tubes, JP1 and JP2 solutions (500 μL) were added in the corresponding glass tubes. These glass tubes were ultrasonically treated for one minute and placed on a shaker for 30 minutes every 5 minutes at the intervals of 30 seconds. The glass tubes were placed in a dark place at room temperature for one hour and the solutions were filtered through a membrane filter. The filtrates were diluted 2 and 10 fold. The resultant test solutions were analyzed and quantified with UPLC (standard product: a 10 mmol/L solution in DMSO was serially diluted with a 50% aqueous acetonitrile solution to prepare two solutions: a 100 μmol/L standard solution and a 5 μmol/L standard solution) relative to the standard.

[4] = Oral bioavailability (BA) in mice; format: in vivo; conditions: plasma; male Swiss mouse, 10.0 mg/kg oral vs 3.0 mg/kg intravenous
Description: Oral Bioavailability (BA) in Mice
as §1, with “male Swiss mouse (23±3” for “female Wistar rat (210±10”, “(0.3” for “(2.0”

[5] = test system: Ovalbumin-induced airway eosinophilia; experiment: Ovalbumin-induced airway eosinophilia model in Brown Norway rat; format: in vivo; conditions: Eosinophil; bid, oral gavage, male Brown Norway rat, 48 hours after ovalbumin challenge; read-out: ED50 value (eosinophils in bronchoalveolar lavage fluid)
Description: Ovalbumin-Induced Airway Eosinophilia Model in Brown Norway Rat
The protocol used herein was described in Clin. Exp. Immunol., 2001; 126: 9 to 15 pages and J. Pharmacol. Exp. Ther., 2011; 337: 145 to 54 pages.
A male Brown Norway rat was sensitized by intraperitoneally injecting a suspension (in 0.9% physiological saline sterilized) of ovalbumin (1 mg) and aluminum hydroxide (100 mg) on Day 0 and Day 7. On Day 14, the compound (I) was administered to the rat by oral gavage. One hour after the oral administration, the animal was housed in a Perspex chamber and exposed to 5% ovalbumin aerosol for 10 minutes. The compound (I) was administered once or twice a day on Day 14 and Day 15. Forty eight hours after ovalbumin challenge, the animal was euthanized and bronchoalveolar lavage fluid was collected. The cell suspension was treated, and the absolute number of eosinophils were counted.

[6] = test system: mitogen-induced IFN-γ release in mouse splenocytes; experiment: Phytohaemagglutinin (PHA) inducible interferon (IFN)-gamma release in mouse splenocytes; format: cell-based; conditions: Splenocyte; C57BL/6 mouse splenocytes, PHA 10 μg/ml, 48 hours, ELISA; read-out: activity (IC50), inhibition of IFN-γ release
Description: Phytohaemagglutinin (PHA) Inducible Interferon (IFN)-Gamma Release in Mouse Splenocytes
In a cell based assay system, the effect of a compound on mitogen-induced IFN-γ release in mouse splenocytes was evaluated [Blood (2010) 115: 2203 to 2213 pages; Current Protocols in Immunology (2004) 3.12.1 to 3.12.20].
Mouse splenocytes were obtained from the spleen of a C57BL/6 mouse and seeded in a 96-well tissue culture plate at a density of 250,000 cells/well. The splenocytes were treated with the compound (I), and thereafter, stimulated with PHA (10 μg/ml) for 48 hours. In this manner, an effect of compound (I) on inhibition of IFN-γ release was evaluated. The IFN-γ release in the cell culture supernatant was quantified by ELISA in accordance with the manufacturer's protocol (BD Biosciences, #555138).

bioavailability [1]: 88%
IC50 (PI3Kγ): ≥ 1000 nM
IC50 (PI3Kβ): ≥ 10000 nM
IC50 (PI3Kα): ≥ 1000 nM
solubility at 30 min [3]: ≥ 1200 µg/mL
bioavailability [4]: 100%
IC50 [6]: 6 nM
Structure (SMILES): Cn1cc(-c2nc(N3CCOCC3)c3nc(C(=O)N4CCC(N5CCOCC5)CC4)[nH]c3n2)cn1 [compound (I), [2-(1-methyl-1H-pyrazol-4-yl)-6-(morpholin-4-yl)-9H-purin-8-yl][4-(morpholin-4-yl)piperidin-1-yl]methanone]
ED50 [2]: 0.1 mg/kg
ED50 [5]: 0.3 mg/kg
